The values below come from ChEMBL document CHEMBL1139487, “Discovery of corticotropin releasing factor 2 receptor selective sauvagine analogues for treatment of skeletal muscle atrophy” (J Med Chem, 2005).

The target of assay [1] is T1, Corticotropin-releasing factor receptor 1 (Mus musculus, UniProt P35347).
T1 sequence (P35347 whole entry): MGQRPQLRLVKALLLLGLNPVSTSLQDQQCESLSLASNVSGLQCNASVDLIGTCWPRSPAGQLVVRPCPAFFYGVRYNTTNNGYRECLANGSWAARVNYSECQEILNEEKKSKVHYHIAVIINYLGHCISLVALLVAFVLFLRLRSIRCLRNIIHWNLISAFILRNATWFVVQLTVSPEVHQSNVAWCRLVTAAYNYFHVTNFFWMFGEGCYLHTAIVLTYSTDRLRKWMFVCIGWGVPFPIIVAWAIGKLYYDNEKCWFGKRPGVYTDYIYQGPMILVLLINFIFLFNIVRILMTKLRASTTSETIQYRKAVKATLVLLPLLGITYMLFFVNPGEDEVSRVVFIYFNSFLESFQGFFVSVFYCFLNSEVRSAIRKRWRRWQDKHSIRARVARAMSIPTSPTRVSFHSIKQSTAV
As to the kind of experiment: In vitro effective concentration for mouse corticotropin releasing factor 1 receptor.

Assay [2] deals with Corticotropin-releasing factor receptor 2 (Mus musculus, UniProt Q60748). Description: In vitro effective concentration for mouse corticotropin releasing factor 2 receptor.
Sequence of Corticotropin-releasing factor receptor 2 (Q60748 whole entry): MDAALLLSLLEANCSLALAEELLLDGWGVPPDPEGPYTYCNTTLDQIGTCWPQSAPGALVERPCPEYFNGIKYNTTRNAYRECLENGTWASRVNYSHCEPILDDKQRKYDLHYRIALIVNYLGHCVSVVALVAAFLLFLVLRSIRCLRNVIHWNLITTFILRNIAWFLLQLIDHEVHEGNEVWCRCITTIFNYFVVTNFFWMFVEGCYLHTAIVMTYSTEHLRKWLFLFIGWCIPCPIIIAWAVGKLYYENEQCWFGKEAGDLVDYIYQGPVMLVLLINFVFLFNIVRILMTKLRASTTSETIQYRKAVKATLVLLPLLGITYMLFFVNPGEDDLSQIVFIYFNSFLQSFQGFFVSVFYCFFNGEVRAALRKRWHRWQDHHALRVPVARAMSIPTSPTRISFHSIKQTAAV

Square brackets hold non-standard residues; d marks the D form. Peptide text beside a SMILES is read from it. 2Nal = N[C@@H](Cc1ccc2ccccc2c1)C(=O)O; pGlu = O=C1CC[C@@H](C(=O)O)N1

What is called EC50 is the concentration at which the effect is half-maximal. A lower EC50 goes with a more potent agent. As for `CC[C@H](C)[C@H](NC(=O)[C@@H](NC(=O)[C@H](CC(=O)O)NC(=O)[C@H](CC(C)C)NC(=O)[C@H](CC(C)C)NC(=O)[C@H](CC(C)C)NC(=O)[C@H](CCCNC(=N)N)NC(=O)[C@H](CC(N)=O)NC(=O)[C@H](CC(N)=O)NC(=O)[C@H](C)NC(=O)[C@H](C)NC(=O)[C@H](CCC(N)=O)NC(=O)[C@H](CCC(N)=O)NC(=O)[C@H](CCCCN)NC(=O)[C@H](CCC(=O)O)NC(=O)[C@H](CCCCN)NC(=O)[C@H](CCC(=O)O)NC(=O)[C@H](CCC(N)=O)NC(=O)[C@H](CCCCN)NC(=O)[C@H](CCC(=O)O)NC(=O)[C@@H](NC(=O)[C@H](CCC(=O)O)NC(=O)[C@@H](NC(=O)[C@H](CCSC)NC(=O)[C@H](CCCCN)NC(=O)[C@H](CCCNC(=N)N)NC(=O)[C@H](CC(C)C)NC(=O)[C@H](CC(C)C)NC(=O)[C@H](CCC(N)=O)NC(=O)[C@H](Cc1ccccc1)NC(=O)[C@@H]1CCCN1C(=O)[C@H](CC(C)C)NC(=O)[C@H](CC(=O)O)NC(=O)[C@@H](NC(=O)[C@H](CO)NC(=O)[C@@H](NC(=O)[C@@H]1CCCN1C(=O)[C@@H]1CCCN1C(=O)CNC(=O)[C@@H]1CCC(=O)N1)[C@@H](C)CC)[C@@H](C)CC)[C@@H](C)CC)[C@@H](C)CC)[C@@H](C)O)C(=O)O`, the values for the EC50 in assay [1] and in assay [2] were 112 nM and 1.8 nM, respectively.

Take `CC[C@H](C)[C@H](NC(=O)[C@@H](NC(=O)[C@H](CC(=O)O)NC(=O)[C@H](CC(C)C)NC(=O)[C@H](CC(C)C)NC(=O)[C@H](CC(C)C)NC(=O)[C@H](CCCNC(=N)N)NC(=O)[C@H](CC(N)=O)NC(=O)[C@H](CC(N)=O)NC(=O)[C@H](C)NC(=O)[C@H](C)NC(=O)[C@H](CCC(N)=O)NC(=O)[C@H](CCC(N)=O)NC(=O)[C@H](CCCCN)NC(=O)[C@H](CCC(=O)O)NC(=O)[C@H](CCCCN)NC(=O)[C@H](CCC(=O)O)NC(=O)[C@H](CCC(N)=O)NC(=O)[C@H](CCCCN)NC(=O)[C@H](CCC(=O)O)NC(=O)[C@@H](NC(=O)[C@H](CCC(=O)O)NC(=O)[C@@H](NC(=O)[C@H](CCSC)NC(=O)[C@H](CCCCN)NC(=O)[C@H](CCCNC(=N)N)NC(=O)[C@H](CC(C)C)NC(=O)[C@H](CC(C)C)NC(=O)[C@H](CC(C)C)NC(=O)[C@H](CC(C)C)NC(=O)[C@@H]1CCCN1C(=O)[C@H](CC(C)C)NC(=O)[C@H](CC(=O)O)NC(=O)[C@@H](NC(=O)[C@H](CO)NC(=O)[C@@H](NC(=O)[C@@H]1CCCN1C(=O)[C@@H]1CCCN1C(=O)CNC(=O)[C@@H]1CCC(=O)N1)[C@@H](C)CC)[C@@H](C)CC)[C@@H](C)CC)[C@@H](C)CC)[C@@H](C)O)C(=O)O`: the EC50 in assay [1] amounted to 162 nM; in assay [2] it was 7.4 nM.

On to `CC[C@H](C)[C@H](NC(=O)[C@@H](NC(=O)[C@H](CC(=O)O)NC(=O)[C@H](CC(C)C)NC(=O)[C@H](CC(C)C)NC(=O)[C@H](CC(C)C)NC(=O)[C@H](CCCNC(=N)N)NC(=O)[C@H](CC(N)=O)NC(=O)[C@H](CC(N)=O)NC(=O)[C@H](C)NC(=O)[C@H](C)NC(=O)[C@H](CCC(N)=O)NC(=O)[C@H](CCC(N)=O)NC(=O)[C@H](CCCCN)NC(=O)[C@H](CCC(=O)O)NC(=O)[C@H](CCCCN)NC(=O)[C@H](CCC(=O)O)NC(=O)[C@H](CCC(N)=O)NC(=O)[C@H](CCCCN)NC(=O)[C@H](CCC(=O)O)NC(=O)[C@@H](NC(=O)[C@H](CCC(=O)O)NC(=O)[C@@H](NC(=O)[C@H](CCSC)NC(=O)[C@H](CCCCN)NC(=O)[C@H](CCCNC(=N)N)NC(=O)[C@H](CC(C)C)NC(=O)[C@H](CC(C)C)NC(=O)[C@H](CC(C)C)NC(=O)[C@H](Cc1ccc(O)cc1)NC(=O)[C@@H]1CCCN1C(=O)[C@H](CC(C)C)NC(=O)[C@H](CC(=O)O)NC(=O)[C@@H](NC(=O)[C@H](CO)NC(=O)[C@@H](NC(=O)[C@@H]1CCCN1C(=O)[C@@H]1CCCN1C(=O)CNC(=O)[C@@H]1CCC(=O)N1)[C@@H](C)CC)[C@@H](C)CC)[C@@H](C)CC)[C@@H](C)CC)[C@@H](C)O)C(=O)O`, for which the EC50 was 76.2 nM in assay [1] and 5.2 nM in assay [2].

Turning to `CC[C@H](C)[C@H](NC(=O)[C@@H](NC(=O)[C@H](CC(=O)O)NC(=O)[C@H](CC(C)C)NC(=O)[C@H](CC(C)C)NC(=O)[C@H](CC(C)C)NC(=O)[C@H](CCCNC(=N)N)NC(=O)[C@H](CC(N)=O)NC(=O)[C@H](CC(N)=O)NC(=O)[C@H](C)NC(=O)[C@H](C)NC(=O)[C@H](CCC(N)=O)NC(=O)[C@H](CCC(N)=O)NC(=O)[C@H](CCCCN)NC(=O)[C@H](CCC(=O)O)NC(=O)[C@H](CCCCN)NC(=O)[C@H](CCC(=O)O)NC(=O)[C@H](CCC(N)=O)NC(=O)[C@H](CCCCN)NC(=O)[C@H](CCC(=O)O)NC(=O)[C@@H](NC(=O)[C@H](CCC(=O)O)NC(=O)[C@@H](NC(=O)[C@H](CCSC)NC(=O)[C@H](CCCCN)NC(=O)[C@H](CCCNC(=N)N)NC(=O)[C@H](CC(C)C)NC(=O)[C@H](CC(C)C)NC(=O)[C@H](Cc1ccc(O)cc1)NC(=O)[C@H](CCC(N)=O)NC(=O)[C@@H]1CCCN1C(=O)[C@H](CC(C)C)NC(=O)[C@H](CC(=O)O)NC(=O)[C@@H](NC(=O)[C@H](CO)NC(=O)[C@@H](NC(=O)[C@@H]1CCCN1C(=O)[C@@H]1CCCN1C(=O)CNC(=O)[C@@H]1CCC(=O)N1)[C@@H](C)CC)[C@@H](C)CC)[C@@H](C)CC)[C@@H](C)CC)[C@@H](C)O)C(=O)O`, the EC50 is 325 nM in assay [1] and 10.7 nM in assay [2].

In the case of `CC[C@H](C)[C@H](NC(=O)[C@@H](NC(=O)[C@H](CC(=O)O)NC(=O)[C@H](CC(C)C)NC(=O)[C@H](CC(C)C)NC(=O)[C@H](CC(C)C)NC(=O)[C@H](CCCNC(=N)N)NC(=O)[C@H](CC(N)=O)NC(=O)[C@H](CC(N)=O)NC(=O)[C@H](C)NC(=O)[C@H](C)NC(=O)[C@H](CCC(N)=O)NC(=O)[C@H](CCC(N)=O)NC(=O)[C@H](CCCCN)NC(=O)[C@H](CCC(=O)O)NC(=O)[C@H](CCCCN)NC(=O)[C@H](CCC(=O)O)NC(=O)[C@H](CCC(N)=O)NC(=O)[C@H](CCCCN)NC(=O)[C@H](CCC(=O)O)NC(=O)[C@@H](NC(=O)[C@H](CCC(=O)O)NC(=O)[C@@H](NC(=O)[C@H](CCSC)NC(=O)[C@H](CCCCN)NC(=O)[C@H](CCCNC(=N)N)NC(=O)[C@H](CC(C)C)NC(=O)[C@H](CC(C)C)NC(=O)[C@H](Cc1ccc2ccccc2c1)NC(=O)[C@H](C)NC(=O)[C@@H]1CCCN1C(=O)[C@H](CC(C)C)NC(=O)[C@H](CC(=O)O)NC(=O)[C@@H](NC(=O)[C@H](CO)NC(=O)[C@@H](NC(=O)[C@@H]1CCCN1C(=O)[C@@H]1CCCN1C(=O)CNC(=O)[C@@H]1CCC(=O)N1)[C@@H](C)CC)[C@@H](C)CC)[C@@H](C)CC)[C@@H](C)CC)[C@@H](C)O)C(=O)O` ([pGlu]GPPISIDLPA[2Nal]LLRKMIEIEKQEKEKQQAANNRLLLDTI-OH), the EC50 in assay [1] turned out to be 582 nM; in assay [2], 13.3 nM.

Turning to `CC[C@H](C)[C@H](NC(=O)[C@@H](NC(=O)[C@H](CC(=O)O)NC(=O)[C@H](CC(C)C)NC(=O)[C@H](CC(C)C)NC(=O)[C@H](CC(C)C)NC(=O)[C@H](CCCNC(=N)N)NC(=O)[C@H](CC(N)=O)NC(=O)[C@H](CC(N)=O)NC(=O)[C@H](C)NC(=O)[C@H](C)NC(=O)[C@H](CCC(N)=O)NC(=O)[C@H](CCC(N)=O)NC(=O)[C@H](CCCCN)NC(=O)[C@H](CCC(=O)O)NC(=O)[C@H](CCCCN)NC(=O)[C@H](CCC(=O)O)NC(=O)[C@H](CCC(N)=O)NC(=O)[C@H](CCCCN)NC(=O)[C@H](CCC(=O)O)NC(=O)[C@@H](NC(=O)[C@H](CCC(=O)O)NC(=O)[C@@H](NC(=O)[C@H](CCSC)NC(=O)[C@H](CCCCN)NC(=O)[C@H](CCCNC(=N)N)NC(=O)[C@H](CC(C)C)NC(=O)[C@H](CC(C)C)NC(=O)[C@H](Cc1ccccc1)NC(=O)[C@H](Cc1ccc(O)cc1)NC(=O)[C@@H]1CCCN1C(=O)[C@H](CC(C)C)NC(=O)[C@H](CC(=O)O)NC(=O)[C@@H](NC(=O)[C@H](CO)NC(=O)[C@@H](NC(=O)[C@@H]1CCCN1C(=O)[C@@H]1CCCN1C(=O)CNC(=O)[C@@H]1CCC(=O)N1)[C@@H](C)CC)[C@@H](C)CC)[C@@H](C)CC)[C@@H](C)CC)[C@@H](C)O)C(=O)O`, the figures for the EC50 in assay [1] and in assay [2] were 63.6 nM and 4.1 nM, respectively.

In the case of `CC[C@H](C)[C@H](NC(=O)[C@@H](NC(=O)[C@H](CC(=O)O)NC(=O)[C@H](CC(C)C)NC(=O)[C@H](CC(C)C)NC(=O)[C@H](CC(C)C)NC(=O)[C@H](CCCNC(=N)N)NC(=O)[C@H](CC(N)=O)NC(=O)[C@H](CC(N)=O)NC(=O)[C@H](C)NC(=O)[C@H](C)NC(=O)[C@H](CCC(N)=O)NC(=O)[C@H](CCC(N)=O)NC(=O)[C@H](CCCCN)NC(=O)[C@H](CCC(=O)O)NC(=O)[C@H](CCCCN)NC(=O)[C@H](CCC(=O)O)NC(=O)[C@H](CCC(N)=O)NC(=O)[C@H](CCCCN)NC(=O)[C@H](CCC(=O)O)NC(=O)[C@@H](NC(=O)[C@H](CCC(=O)O)NC(=O)[C@@H](NC(=O)[C@H](CCSC)NC(=O)[C@H](CCCCN)NC(=O)[C@H](CCCNC(=N)N)NC(=O)[C@H](CC(C)C)NC(=O)[C@H](CC(C)C)NC(=O)[C@H](CCC(N)=O)NC(=O)[C@H](CCC(N)=O)NC(=O)[C@@H]1CCCN1C(=O)[C@H](CC(C)C)NC(=O)[C@H](CC(=O)O)NC(=O)[C@@H](NC(=O)[C@H](CO)NC(=O)[C@@H](NC(=O)[C@@H]1CCCN1C(=O)[C@@H]1CCCN1C(=O)CNC(=O)[C@@H]1CCC(=O)N1)[C@@H](C)CC)[C@@H](C)CC)[C@@H](C)CC)[C@@H](C)CC)[C@@H](C)O)C(=O)O`, the EC50 in assay [1] is over 1000 nM; in assay [2], 29.9 nM.
